Measured values as given in patent US11369607B2, “Compositions, systems, and methods for generating inner ear hair cells for treatment of hearing loss” (Massachusetts Institute of Technology, priority 2014, dated 2022).
Entries after “also recorded” stand apart in the source; their conditions may differ.

Assays:
[1] = test system: Lgr5+ supporting cells isolated from the cochlea; assay: Expansion of Lgr5-GFP inner ear progenitor cells in Matrigel based 3D culture; type: cell-based, mouse; conditions: neonatal Lgr5 inner ear progenitor cells
Protocol: Cell culture: Heterozygous Lgr5-EGFP-IRES-CreERT2 mice were obtained from Jackson Labs, and neonatal P2-P5 mice were used for cell isolation. Organ of Corti was isolated from Lgr5-GFP mice and further dissociated into single cells using trypsin. Cells were then cultured as previously described (Yin et al, 2014). Briefly, cells were entrapped in Matrigel and plated at the center of wells in a 24-well plate. Following polymerization of Matrigel, 500 μl of culture media (Advanced DMEM/F12 with N2 and B27) was added, containing growth factors including EGF (50 ng/ml) (epidermal growth factor), bFGF (20 ng/ml) (fibroblast growth factor), and IGF1 (50 ng/ml) (insulin-like growth factor 1), and small molecules including CHIR99021 (5 μM), valproic acid (1 mM), 2-phospho-L-ascorbic acid (280 μM), and 616452 (2 μM). Y-27632 (10 μM) was added for the first 2 days. In some experiments, bFGF was used at 50 ng/ml.
For single cell isolation, the organs of Corti were then treated with Cell Recovery Solution (Corning) for 1 h to separate cochlear epithelium from the underlying mesenchyme. Epithelia were then collected and treated with Trypsin (Life Technologies) for 15-20 minutes at 37° C. Single cells obtained by mechanical trituration were filtered by cell strainer (40 μm) and washed with cell culture media. For FACS sorting of Lgr5-high and Lgr5-Low cells, FACS ARIA (BD) was used and Lgr5-GFP was used as indicator of Lgr5 level. Sorted single cells were cultured in Matrigel in inner ear cell culture media with supplement growth factors and small molecules. Y-27632 was added in the first 2 days.
FACS analysis: Cell culture media was removed and Trypsin was added. After incubation at 37° C. for 10-20 min, colonies were dissociated into single cells. Live-cell number were counted using a hemocytometer and trypan blue staining. The cells were then stained with propidium iodide (PI) and analyzed with flow cytometry. The number of GFP-positive cells was calculated by multiplying the total number of cells by the percentage of GFP-positive cells.

[2] = test system: Lgr5 inner ear cells from adult mice; assay: Expansion of Lgr5-GFP inner ear cells from adult mice; type: cell-based; conditions: adult mouse
Protocol: FIGS. 13A-C depict In vitro culture of Lgr5-GFP inner ear progenitor cells from adult mouse. FIG. 13A: Isolated cochlear from 9-week old mice was cultured in the presence of EFICVP6 for 9 days. Showing out-growth of Lgr5-GFP cells. FIG. 13B: The same culture at day 13. Showing expansion of Lgr5-GFP cells. FIG. 13C: Passage 2 of the same culture at day 5 after passage (Day 19). All scale bars: 100 μm. Specifically, cochlear was isolated from 9-week old adult mice, directly mixed with Matrigel and plated at the center of well of a 24-well plate. Cell culture medium in the presence of EGF, bFGF, IGF-1, CHIR99021, VPA, L-Ascorbic acid 2-phosphate (pVc) and a TGF-β RI Kinase Inhibitor II (616452) was added following gelation of Matrigel. The tissue was cultured for 2 weeks until Lgr5-GFP cells expanded and form out-growth. After 2 weeks (Day 14) the tissue was then dissociated using trypsin, re-plated and further cultured.
For adult tissue, the stria vascularis was removed but the epithelium was not removed from the underlying mesenchyme due to the limited amount of intact cochlea that could be extracted. For adult cells, additional small molecule TTNPB (2 μM, Tocris) was added and the complete media contain EGF, bFGF, IGF-1, CHIR99021, VPA, pVc, 616452 and TTNPB.

CBA/CaJ mice = assay: Hearing recovery in noise-deafened mice (auditory brainstem responses); type: in vivo, mouse; conditions: 5, 10, 20, 28.3 and 40 kHz, p<0.05
Protocol: A 17% (w/w) stock solution of poloxamer 407 gel (Sigma-Aldrich) was prepared by slowly adding it to cold 1× phosphate-buffered saline at pH 7.4. This solution is liquid when refrigerated or at room temperature but solidifies at body temperature. The gel was tinted blue with Evans blue dye (50 ppm) for visualization during administration.
A formulation was prepared as described in Example 4 with 527 mM VPA and 2.975 mM CHIR in 17% Poloxamer 407 with 5% DMSO (“VPA/CHIR”). For comparison, a Notch inhibitor, LY411575, was prepared at 4 mM in 17% Poloxamer 407 with 5% DMSO (“LY411575”). Additionally, a vehicle-only control of 17% Poloxamer 407 with 5% DMSO was prepared (“Control”).
CBA/CaJ mice were deafened in a noise chamber by exposure to an 8-16 kHz octave band noise band for 2 hours at 120 dB SPL. 24 hours after noise exposure, their hearing was assessed by measuring auditory brainstem responses (ABRs). The minimum sound pressure level (SPL) required for visual detection of ABR Wave I was determined at 5, 10, 20, 28.3, and 40 kHz. Following ABR measurements, a trans-tympanic injection of a Poloxamer gel drug mixture (described above as “VPA/CHIR”, “LY411575”, or “Control”) was delivered to fill the middle ear cavity. After 30 days, ABR was assessed and the improvement in hearing threshold from 24 hrs to 30 days after noise exposure was determined.

C/C(=C\c1ccc(C(=O)O)cc1)c1ccc2c(c1)C(C)(C)CCC2(C)C [TTNPB]
Lgr5-GFP expression, effect of addition [1]: didn't increase GFP expression | cell proliferation, effect of addition [1]: increased cell proliferation; also recorded: slightly increased cell proliferation | GFP+ colony formation [2]: formation of GFP^+ colonies | proliferation of adult Lgr5 cells [2]: increase cell proliferation; also recorded: significantly promoted the proliferation of cultured cells; also recorded: promote the proliferation of adult Lgr5 inner ear progenitor cells

C[C@H](NC(=O)[C@@H](O)c1cc(F)cc(F)c1)C(=O)N[C@@H]1C(=O)N(C)c2ccccc2-c2ccccc21 [LY411575, N-2((2S)-2-(3,5-difluorophenyl)-2-hydroxyethanoyl)-N 1-((7S)-5-methyl-6-oxo-6,7-dihydro-5H-dibenzo[b,d]azepin-7-yI)-1-alaninamide]
hearing recovery (CBA/CaJ mice): significant recovery at 10 kHz, 28.3 KHz, and 40 kHz
